Test results taken from publication PMC8273696, “Colombian Scorpion Centruroides margaritatus: Purification and Characterization of a Gamma Potassium Toxin with Full-Block Activity on the hERG1 Channel” (Toxins, 2021).
“Also recorded” adds a separate entry of the source. Like-named read-outs stand apart in the source and are kept apart here. Positions of bridges follow the written chain, without caps; N, C: chain ends. No end group written: not given here.

How the values were obtained:
[1] = system: ERG potassium channels (hERG1); conditions: ref [22],[46]; cited from earlier work
Description: Scorpion venom is a mixture of proteins, peptides and enzymes, carbohydrates, free amines, nucleotides, lipids, and other low molecular weight components with unknown function. Peptides that act as ion channel modulators are the main agents responsible for the venom toxicity and they have been classified according to their targets into: sodium scorpion toxins (NaScTx), with molecular masses between 6–8 kDa, potassium scorpion toxins (KScTx), with molecular masses between 3–5 kDa, and calcium scorpion toxins (CaScTx) that comprise peptides acting on voltage gated calcium channel ... || The effect of the CmERG1 toxin was evaluated on the hERG1 channel by means of electrophysiology experiments. […] Dose response curves were calculated by application of toxin concentrations from 1 nM to 1 µM. […] This feature is different from the other γKTxs, like CnERG1, ... || Two models were proposed to explain the uncommon feature of the γKTxs that comprises a partial current block, despite the saturation concentration, and the acceleration of the closing process due to the toxin preference for the channel closed state. In one kinetic model proposed by Hill and collaborators, first the toxin binds to the channel in a toxin channel encounter complex permissive to ion flow (TC*) and then passes to the blocked toxin-channel complex (TC). […]

hERG1 channel [2] = biological target: T1, hERG1 channel (Homo sapiens, UniProt Q12809); assay: Patch-clamp electrophysiology, block of hERG1 tail currents (dose-response) in CHO cells stably expressing hERG1; format: cell-based; conditions: for activity on hERG1 channels, in words (venom fraction screening / purified peptide): electrophysiology screening
T1 construct: expressed in transfected cells
Procedure: CHO cells stably expressing hERG1 potassium channels were used for the electrophysiological experiments (hERG1 accession number: NP_000229). We previously prepared this cell line stably transfecting CHO cells with plasmid pcDNA3.1-hERG1 (a kind gift from Enzo Wanke from University of Milano-Bicocca, Italy). Briefly: CHO cells at 80% confluence in a 35 mm culture plate were transfected with 2 µg of pcDNA3.1-hERG1 mixed with 7 uL of Lipofectamine (Invitrogen), accordingly to the manufacturer instructions. After 3 days, cells were selected by adding to the culture medium 2 mg/mL of G418 (SIGMA). After 10 days of selection, cells were cloned by limiting dilution and the resulting clones were probed for their current expression by electrophysiological recordings. High glucose DMEM (Dulbecco’s Modified Eagle Medium, SIGMA, Naucalpan de Juarez, Edo de Mexico, Mexico), supplemented with 10% Fetal Bovine Serum (Biotecfron, Emiliano Zapata, Morelos, Mexico) and with 500 µg/mL of antibiotic G418 (SIGMA) was used as growth medium. Cells were routinely maintained at 37 °C with 5% of CO2 in humidified atmosphere.
Intracellular solution contained in mM: 130 K-Aspartate, 10 NaCl, 2 MgCl2, 10 HEPES, 10 EGTA, pH 7.3 adjusted with NaOH. Extracellular solution contained in mM: 95 NaCl, 40 KCl, 2 CaCl2, 2 MgCl2, 10 HEPES, 5 glucose, pH 7.3 adjusted with NaOH. A concentrated 100–1000× stock was prepared dissolving lyophilized toxin in distilled water and stored at −20 °C until the used (no more than 3 weeks). Solutions were delivered to the cell under patch by means of an active perfusion system connected to a variable speed syringe pump (model A-99 from Razel Scientific Instruments (Saint Albans VT, USA)). The perfusion rate was approximately 1µL/s.
Patch pipettes were manufactured from capillary borosilicate glass tubing (Warner Instruments, Hamden, CT, USA) by means of a vertical puller model P-30 (Sutter Instrument, Novato, CA, USA). When pipettes were filled with internal solution, pipette resistance was between 1.5–3 MOhm.
During the depolarizing steps, hERG1 currents are usually small (Figure S1). This is a consequence of the slow activation kinetics (in seconds) and the very fast inactivation kinetics (in milliseconds) of this channel that can be considered an inward rectifier. Therefore, it is a common practice to record the tail currents during the hyperpolarization, where the inactivation is quickly removed and the deactivation occurs slowly. For the dose response curve (Figure 3), tail currents of hERG1 were recorded at −120 mV for 500 ms, after a preconditioning pulse at 60 mV for 500 ms every 5 s. Peak currents recorded in absence and in presence of the toxin were normalized to the maximal peak current in control condition and plotted versus the logarithm of toxin concentration. Data were fitted by a logistic equation. For the voltage dependence of activation study, hERG1 tail currents were recorded during a step at −120 mV for 500 ms, preceded by a 5 s depolarization steps in the range between 30 to −80 mV. To determine the voltage dependence of inactivation, currents were recorded after a depolarization at 40 mV for 1 s, during depolarization steps in the range between 40 to −170 mV. Currents recorded at potentials lower than −90 mV were corrected for deactivation: the deactivation process was fitted by a single exponential extrapolated to the zero point of each step. Data from both activation and inactivation protocols, in absence and in presence of the toxin, were normalized, plotted versus membrane potential, and fitted by a Boltzmann function.
Currents were acquired by using MultiClamp 700A amplifier and DigiData 1440a (Molecular Devices, San Jose, CA, USA). Off-line analysis and graphs were performed by using Clampfit 10 (Molecular Devices) and Origin 8 (OriginLab, Northampton MA, USA).
Where it is not otherwise indicated, electrophysiological data represent the mean of 3–6 cells ± standard error (S.E.). […]

hERG1 channel [3] = biological target: T1, hERG1 channel; assay: Patch-clamp, voltage dependence of activation of hERG1; format: cell-based; conditions: 4 nM
Procedure: To understand better the activity of CmERG1 on hERG1, we analyzed the voltage dependence of the activation and inactivation processes in presence or absence of CmERG1 at 4 nM, a concentration close to the IC50. For the activation, tail currents were elicited at −120 mV after 5 s preconditioning pulses from 30 to −80 mV (Figure 4A). Figure 4B,C illustrates typical currents recorded in the absence and in the presence of CmERG1. Tail currents were normalized, plotted versus preconditioning potentials, and fitted to a Boltzmann equation (Figure 4D). […]
Figure 4 Effect of CmERG1 at 4 nM on the voltage dependence of activation and inactivation. […] (B,C) typical example of tail currents recorded in control conditions and during application of CmERG1, respectively. […] Black lines are the best fit obtained to a Boltzmann equation giving V1/2 for activation of −37.5 ± 1.4 mV and −34.8 ± 0.8 mV and slope of 6.0 ± 0.3 and 8 ± 0.7 for the control and in the presence of 4 nM CmERG1, respectively (mean ± SE and n = 5, analyzed by paired sample t-test at 0.05 level). […] Currents recorded at potentials lower than −90 mV were corrected for deactivation as shown in the inset of panel (F). […] (F,G) typical example of currents recorded in control conditions and in presence of 4 nM CmERG1 respectively. […]

hERG1 channel [4] = biological target: T1, hERG1 channel; assay: Patch-clamp, voltage dependence of (steady state) inactivation of hERG1; format: cell-based; conditions: 4 nM, n = 5
Procedure: Figure 4 Effect of CmERG1 at 4 nM on the voltage dependence of activation and inactivation. (A) Stimulation protocol used to study the voltage dependence of activation. Tail currents were elicited by 5 s preconditioning steps ranging from +30 to −80 mV, followed by a 500 ms pulse at −120 mV. (B,C) typical example of tail currents recorded in control conditions and during application of CmERG1, respectively. (D) Voltage dependence of activation. Normalized peak currents are plotted against the voltage of the preconditioning pulses in control conditions (black squares) and in the presence of 4 nM CmERG1 (grey squares). Black lines are the best fit obtained to a Boltzmann equation giving V1/2 for activation of −37.5 ± 1.4 mV and −34.8 ± 0.8 mV and slope of 6.0 ± 0.3 and 8 ± 0.7 for the control and in the presence of 4 nM CmERG1, respectively (mean ± SE and n = 5, analyzed by paired sample t-test at 0.05 level). (E) Stimulation used to study the voltage dependence of inactivation. Currents were elicited by a 1 s preconditioning pulse at 40 mV followed by depolarization steps ranging from −170 mV to 40 mV. Currents recorded at potentials lower than −90 mV were corrected for deactivation as shown in the inset of panel (F). The deactivation process was fitted by a single exponential (grey dash line) extrapolated to the zero point of the depolarization step, indicated by the arrow. (F,G) typical example of currents recorded in control conditions and in presence of 4 nM CmERG1 respectively. (H) Voltage dependence of inactivation. […] Black lines are the best fit obtained by a Boltzmann equation giving V1/2 for inactivation of −77.6 ± 3.6 mV and −79 ± 1.3 mV and slope of 28.2 ± 2.2 and 29 ± 1.5 for control conditions and in presence of 4 nM CmERG1, respectively (mean ± SE and n = 5, analyzed by paired sample t-test at 0.05 level).
For steady state inactivation, tail currents were recorded during 500 ms depolarization steps from −170 to 40 mV, after a depolarization at 40 mV for 1 s (Figure 4E). Figure 4F,G show an example of currents recorded in the absence and in the presence of toxin. […]

Kv1.1 channel = conditions: affinity compared with Kv1.3; ref [31] (ref [30],[31]); cited from earlier work
Description: (§1) Until now, little is known about the C. margaritatus venom composition. […] Thereafter, in a proteomics study of C. margaritatus venom, two other peptides were isolated and characterized: a peptide with 24 amino acids and 3 disulfide bridges (MW = 2609.15 Da) and a peptide with 30 amino acids and 3 disulfide bridges (MW = 3376 Da), both cla ... || Despite the fact that the C. margaritatus scorpion belongs to the Buthidae […], its venom has been considered of low toxicity, but as mentioned above, in Colombia this species has caused a few cases of moderate and severe scorpionism.

Kv1.2 channel = conditions: affinity compared with Kv1.3; ref [31] (ref [30],[31]); cited from earlier work
Description: as §1

Kv1.3 channel = conditions: human peripheral T lymphocytes, ref [30] (ref [30],[31]), cited from earlier work
Description: as §1

T1 sequence (Q12809 whole entry): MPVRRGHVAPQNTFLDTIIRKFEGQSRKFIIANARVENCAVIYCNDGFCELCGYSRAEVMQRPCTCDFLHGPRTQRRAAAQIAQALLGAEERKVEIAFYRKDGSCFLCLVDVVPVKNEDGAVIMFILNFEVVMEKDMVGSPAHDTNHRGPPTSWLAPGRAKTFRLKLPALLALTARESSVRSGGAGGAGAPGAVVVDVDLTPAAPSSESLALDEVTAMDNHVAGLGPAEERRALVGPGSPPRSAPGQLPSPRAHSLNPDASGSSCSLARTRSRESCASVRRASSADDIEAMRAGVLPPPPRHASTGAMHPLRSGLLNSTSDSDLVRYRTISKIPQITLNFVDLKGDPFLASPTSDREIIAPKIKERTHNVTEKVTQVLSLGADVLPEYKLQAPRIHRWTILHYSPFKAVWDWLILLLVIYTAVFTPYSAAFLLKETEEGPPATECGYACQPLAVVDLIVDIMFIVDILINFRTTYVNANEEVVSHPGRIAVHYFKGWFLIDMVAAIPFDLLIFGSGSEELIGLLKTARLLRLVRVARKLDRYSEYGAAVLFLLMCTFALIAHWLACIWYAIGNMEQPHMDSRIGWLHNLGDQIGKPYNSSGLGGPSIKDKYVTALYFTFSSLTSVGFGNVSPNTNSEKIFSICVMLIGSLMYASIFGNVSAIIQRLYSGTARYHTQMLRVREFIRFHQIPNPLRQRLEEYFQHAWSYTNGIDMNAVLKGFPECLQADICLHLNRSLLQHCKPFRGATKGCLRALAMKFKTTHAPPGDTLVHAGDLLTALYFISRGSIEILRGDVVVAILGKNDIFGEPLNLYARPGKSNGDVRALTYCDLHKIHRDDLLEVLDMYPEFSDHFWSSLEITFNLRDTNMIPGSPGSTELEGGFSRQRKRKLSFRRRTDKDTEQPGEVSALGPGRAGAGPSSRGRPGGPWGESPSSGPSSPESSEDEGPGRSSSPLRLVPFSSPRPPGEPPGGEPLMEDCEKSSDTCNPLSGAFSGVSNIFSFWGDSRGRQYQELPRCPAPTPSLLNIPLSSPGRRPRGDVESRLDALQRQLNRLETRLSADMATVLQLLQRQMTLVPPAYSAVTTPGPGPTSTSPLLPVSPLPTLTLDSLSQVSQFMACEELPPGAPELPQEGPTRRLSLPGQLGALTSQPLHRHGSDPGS

BeKm-1
state dependence of channel-toxin interaction [1]: toxin binds preferentially to the closed channels while inactivation promotes toxin unbinding

DRDSCVDKSRCAKYGYFQECTDCCKKYGHNGGTCMFFKCKCA (disulfide 5-23, 11-34, 20-39, 24-41) [CmERG1]
slope of dose-response curve (logistic equation) (hERG1 channel [2]; CHO cells stably expressing hERG1, 1 nM to 1 µM, tail currents at −120 mV): 1.1 ± 0.05
IC50 (hERG1 channel [2]; CHO cells stably expressing hERG1, tail currents at −120 mV after preconditioning at 60 mV for 500 ms every 5 s, 1 nM to 1 µM, logistic fit, mean ± S.E., n = 3-6 cells per concentration, read-out: IC50, inhibition of hERG1 currents): 3.4 ± 0.2 nM
onset and reversibility of block (hERG1 channel [2]; CHO-hERG1 patch clamp, application at 1 µM and washout, pulses every 5 s): blocks channels in a fast and reversible manner
block of hERG1 current, in words (hERG1 channel [2]; CHO-hERG1 patch clamp, highest concentration 1 µM (n = 3)): completely blocks hERG1 current; also recorded: able to almost completely block the channels; also recorded: full blocking
block of hERG1 current (hERG1 channel [2]; CHO-hERG1 patch clamp, maximal block): 100%
effect on kinetics of the closing (deactivation) process (hERG1 channel [2]; CHO-hERG1 patch clamp, representative currents at 300 nM and 3 nM): does not accelerate the kinetics of the closing process; also recorded: absence of deactivation process acceleration
difference in efficiency at a total block of current between CmERG1 and CnERG1 (hERG1 channel [2]; CmERG1 versus CnERG1): 10%
activity on hERG1 channels, in words (venom fraction screening / purified peptide) (hERG1 channel [2]): active on hERG1
activity on hERG1 channels, in words (venom fraction screening / purified peptide) (hERG1 channel [2]; listed as peptide corresponding to 4792.88 Da): confirmed the activity of this peptide against hERG1
V1/2 for activation (potential of half activation) in presence of toxin (hERG1 channel [3]; Boltzmann fit, control −37.5 ± 1.4 mV, mean ± SE, n = 4 or n = 5, paired t-test): -34.8 ± 0.8 mV
effect on total current / voltage dependence of activation, in words (hERG1 channel [3]; n = 4, paired sample t-test at 0.05 level): reduces the total current with a tendency to modify the potential of half activation
slope of voltage dependence of inactivation in presence of toxin (hERG1 channel [4]; Boltzmann fit, control 28.2 ± 2.2, mean ± SE): 29 ± 1.5
V1/2 for inactivation in presence of toxin (hERG1 channel [4]; Boltzmann fit, control −77.6 ± 3.6 mV, mean ± SE): −79 ± 1.3 mV
effect on voltage dependence of steady state inactivation, in words (hERG1 channel [4]; paired sample t-test at 0.05 level): does not induce significant changes on the voltage dependence of inactivation; also recorded: no modification of the steady state inactivation

Margatoxin
inhibition of Kv1.1, in words (Kv1.1 channel): block also Kv1.1
inhibition of Kv1.2, in words (Kv1.2 channel): block also Kv1.1 and Kv 1.2
inhibition of Kv1.3, in words (Kv1.3 channel): potent and specific blocker
inhibition of Kv1.3, in words (Kv1.3 channel; listed as Margatoxin 1): potent inhibitor
